The results in this text go back to US8586588B2, “Aryl pyridazinone derivatives and their use as H3 receptor ligands” (Cephalon, Inc., priority 2006, dated 2013).

Assay [1] has as its target T1, human H3 receptor (Homo sapiens, UniProt Q9Y5N1).
T1 construct: expressed in transfected cells
As to the kind of experiment: Human H3 radioligand binding ([3H]-N-alpha-methylhistamine, CHO cell membranes, SPA). To be noted: binding constant as letter class. The gist of the method: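 CHO cell membranes expressing human H3 (10 μg protein/well) incubated 4 h at room temperature, in the dark, with ~1 nM [3H]-N-alpha-methylhistamine, compounds (0.01 nM-30 μM) and SPA beads in 50 mM Tris HCl pH 7.4, 5 mM MgCl2, 0.1% BSA. Non-specific binding defined with 10 μM clobenpropit.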

The target in assay [2] is T2, rat histamine H3 receptor (Rattus norvegicus, UniProt Q9QYN8).
T2 construct: encoding the entire 445-amino-acid rat histamine H3 receptor; expressed in transfected cells
T2 sequence (Q9QYN8 whole entry): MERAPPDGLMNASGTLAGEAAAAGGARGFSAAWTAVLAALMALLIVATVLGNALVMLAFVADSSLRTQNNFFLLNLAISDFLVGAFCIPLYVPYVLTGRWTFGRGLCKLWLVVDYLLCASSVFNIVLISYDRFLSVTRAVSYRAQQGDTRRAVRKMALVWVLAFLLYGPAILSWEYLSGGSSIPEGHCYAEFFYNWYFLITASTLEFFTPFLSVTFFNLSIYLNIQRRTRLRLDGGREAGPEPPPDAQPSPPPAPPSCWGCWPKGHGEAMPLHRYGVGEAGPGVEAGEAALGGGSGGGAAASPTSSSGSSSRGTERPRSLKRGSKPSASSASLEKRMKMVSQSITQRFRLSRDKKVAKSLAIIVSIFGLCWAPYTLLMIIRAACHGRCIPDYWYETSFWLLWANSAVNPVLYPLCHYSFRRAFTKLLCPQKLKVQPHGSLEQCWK
As to the kind of experiment: Rat H3 radioligand binding ([3H]-N-alpha-methylhistamine, CHO-A3 cell membranes, SPA). The gist of the method:
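Membranes from CHO-A3 cells stably expressing rat H3 (10 μg protein) incubated 4 h at room temperature in 50 mM Tris-HCl pH 7.4, 5 mM MgCl2, 0.1% BSA with ~1 nM [3H]-N-alpha-methylhistamine and compound (0.01 nM-30 μM). Bound radioligand read by scintillation proximity; nonspecific binding with 10 μM clobenpropit.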

[3] abbreviates: Table B, binding constant as letter class, read-out: rat H3 Ki.

Structures are written as SMILES. Where two headings read alike, the source gives them in different places.

T1 sequence (Q9Y5N1 whole entry): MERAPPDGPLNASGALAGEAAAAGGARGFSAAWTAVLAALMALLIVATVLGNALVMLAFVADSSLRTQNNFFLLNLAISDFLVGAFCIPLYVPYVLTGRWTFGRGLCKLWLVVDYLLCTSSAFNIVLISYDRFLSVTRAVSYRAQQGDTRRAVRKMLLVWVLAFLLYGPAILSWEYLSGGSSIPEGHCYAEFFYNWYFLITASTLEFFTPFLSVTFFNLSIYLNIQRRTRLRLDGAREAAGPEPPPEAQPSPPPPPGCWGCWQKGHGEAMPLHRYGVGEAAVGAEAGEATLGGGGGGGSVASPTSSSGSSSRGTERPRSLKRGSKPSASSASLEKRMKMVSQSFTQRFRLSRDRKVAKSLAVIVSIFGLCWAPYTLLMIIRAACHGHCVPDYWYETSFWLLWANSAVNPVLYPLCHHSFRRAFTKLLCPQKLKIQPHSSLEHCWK

In general, Ki refers to the equilibrium dissociation constant of an inhibitor or competing ligand from its target. Take `C[C@@H]1CCCN1CCCOc1ccc(-c2ccc(=O)n(-c3ccccc3)n2)cc1F` [Example 81, 6-{3-Fluoro-4-[3-((R)-2-methyl-pyrrolidin-1-yl)-propoxy]-phenyl}-2-phenyl-2H-pyridazin-3-one]: the inhibition constant (Ki) lay in the range of 0.1 to 100 nM in assay [1] (Table A); 0.1 to 100 nM in assay [1] (Table B); 0.1 to 100 nM in assay [2] (Table A, binding constant as letter class, read-out: Rat H3 Ki); 0.1 to 100 nM in assay [2] (setting [3]).
For the compound `C[C@@H](COc1ccc(-c2ccc(=O)n(C)n2)cc1)CN1CCC[C@H]1C` [Example 82, 2-Methyl-6-{4-[(R)-2-methyl-3-((R)-2-methyl-pyrrolidin-1-yl)-propoxy]-phenyl}-2H-pyridazin-3-one], the Ki in assay [1] (Table B) and in assay [2] (setting [3]) was 0.1 to 100 nM throughout.
Take `C[C@@H]1CCCN1CCCOc1ccc(-c2ccc(=O)n(C)n2)cc1Cl` [Example 85, 6-{3-Chloro-4-[3-((R)-2-methyl-pyrrolidin-1-yl)-propoxy]-phenyl}-2-methyl-2H-pyridazin-3-one]: the Ki in assay [1] (Table B) and in assay [2] (setting [3]) was 0.1 to 100 nM in each case.
As to `Cc1nn(C)c(=O)cc1-c1ccc(OCCCN2CCC[C@H]2C)cc1` [Example 86, 2,6-Dimethyl-5-{4-[3-((R)-2-methyl-pyrrolidin-1-yl)-propoxy]-phenyl}-2H-pyridazin-3-one], the Ki in assay [1] (Table B) and in assay [2] (setting [3]) was 0.1 to 100 nM throughout.
Turning to `Cc1nn(C)c(=O)cc1-c1ccc(OCCCN2CCCCC2)cc1` [Example 87, 2,6-Dimethyl-5-[4-(3-piperidin-1-yl-propoxy)-phenyl]-2H-pyridazin-3-one], the Ki in assay [1] (Table B) and in assay [2] (setting [3]) was 0.1 to 100 nM each time.
Turning to `Cc1n[nH]c(=O)cc1-c1ccc(OCCCN2CCC[C@H]2C)cc1` [Example 88, 6-Methyl-5-{4-[3-((R)-2-methyl-pyrrolidin-1-yl)-propoxy]-phenyl}-2H-pyridazin-3-one], the inhibition constant Ki in assay [1] (Table B) and in assay [2] (setting [3]) was 0.1 to 100 nM each time.
For `Cc1n[nH]c(=O)cc1-c1ccc(OCCCN2CCCCC2)cc1` [Example 89, 6-Methyl-5-[4-(3-piperidin-1-yl-propoxy)-phenyl]-2H-pyridazin-3-one], the Ki in assay [1] (Table B) and in assay [2] (setting [3]) was 0.1 to 100 nM throughout.
Turning to `Cc1n[nH]c(=O)cc1-c1ccc(OCCCN2CCCCCC2)cc1` [Example 90, 5-[4-(3-Azepan-1-yl-propoxy)-phenyl]-6-methyl-2H-pyridazin-3-one], the inhibition constant (Ki) in assay [1] (Table B) is 0.1 to 100 nM; in assay [2] (Table B, cell prints a number instead of a letter, read-out: rat H3 Ki) it was 5 nM.
With `C[C@@H]1CCCN1CCCOc1ccc(-c2cnn(C)c(=O)c2)cc1` [Example 91, 2-Methyl-5-{4-[3-((R)-2-methyl-pyrrolidin-1-yl)-propoxy]-phenyl}-2H-pyridazin-3-one], the Ki in assay [1] (Table B) and in assay [2] (setting [3]) was 0.1 to 100 nM in each case.
Consider `Cn1ncc(-c2ccc(OCCCN3CCCCC3)cc2)cc1=O` [Example 92, 2-Methyl-5-[4-(3-piperidin-1-yl-propoxy)-phenyl]-2H-pyridazin-3-one], for which the inhibition constant Ki in assay [1] (Table B) and in assay [2] (setting [3]) was 0.1 to 100 nM throughout.
For the compound `Cn1ncc(-c2ccc(OCCCN3CCCCCC3)cc2)cc1=O` [Example 93, 5-[4-(3-Azepan-1-yl-propoxy)-phenyl]-2-methyl-2H-pyridazin-3-one], the inhibitory constant (Ki) in assay [1] (Table B) and in assay [2] (setting [3]) was 0.1 to 100 nM in each case.
Consider `O=c1cc(-c2ccc(OCCCN3CCCCC3)cc2)cnn1-c1ccccn1` [Example 95, 5-[4-(3-Piperidin-1-yl-propoxy)-phenyl]-2-pyridin-2-yl-2H-pyridazin-3-one], for which the inhibition constant Ki in assay [1] (Table B) and in assay [2] (setting [3]) was 0.1 to 100 nM in each case.
With `O=c1cc(-c2ccc(OCCCN3CCCCCC3)cc2)cnn1-c1ccccn1` [Example 96, 5-[4-(3-Azepan-1-yl-propoxy)-phenyl]-2-pyridin-2-yl-2H-pyridazin-3-one], the inhibition constant (Ki) in assay [1] (Table B) and in assay [2] (setting [3]) was 0.1 to 100 nM in each case.
With `Cc1cccnc1-n1ncc(-c2ccc(OCCCN3CCC[C@H]3C)cc2)cc1=O` [Example 99, 2-(3-Methyl-pyridin-2-yl)-5-{4-[3-((R)-2-methylpyrrolidin-1-yl)-propoxy]-phenyl}-2H-pyridazin-3-one], the inhibition constant (Ki) in assay [1] (Table B) and in assay [2] (setting [3]) was 0.1 to 100 nM throughout.
As to `Cc1nn(-c2ccccn2)c(=O)cc1-c1ccc(OCCCN2CCC[C@H]2C)cc1` [Example 100, 6-Methyl-5-{4-[3-((R)-2-methyl-pyrrolidin-1-yl)-propoxy]-phenyl}-2-pyridin-2-yl-2H-pyridazin-3-one], the Ki in assay [1] (Table B) and in assay [2] (setting [3]) was 0.1 to 100 nM each time.
Regarding `Cc1cccnc1-n1nc(C)c(-c2ccc(OCCCN3CCC[C@H]3C)cc2)cc1=O` [Example 101, 6-Methyl-2-(3-methyl-pyridin-2-yl)-5-{4-[3-((R)-2-methyl-pyrrolidin-1-yl)-propoxy]-phenyl}-2H-pyridazin-3-one], the inhibitory constant (Ki) in assay [1] (Table B) and in assay [2] (setting [3]) was 0.1 to 100 nM each time.
Consider `Cc1n[nH]c(=O)cc1-c1ccc(OC2CCN(C3CCC3)CC2)cc1` [Example 103, 5-[4-(1-Cyclobutyl-piperidin-4-yloxy)-phenyl]-6-methyl-2H-pyridazin-3-one], for which the Ki in assay [1] (Table B) and in assay [2] (setting [3]) was 0.1 to 100 nM each time.
As to `Cc1nn(-c2ccccn2)c(=O)cc1-c1ccc(OC2CCN(C3CCC3)CC2)cc1` [Example 104, 5-[4-(1-Cyclobutyl-piperidin-4-yloxy)-phenyl]-6-methyl-2-pyridin-2-yl-2H-pyridazin-3-one], the Ki in assay [1] (Table B) and in assay [2] (setting [3]) was 0.1 to 100 nM throughout.
Turning to `O=c1cc(-c2ccc(OC3CCNCC3)cc2)cn[nH]1` [Example 105, 5-[4-(Piperidin-4-yloxy)-phenyl]-2H-pyridazin-3-one], the Ki in assay [1] (Table B) and in assay [2] (setting [3]) was above 1000 nM in each case.
As to `O=c1cc(-c2ccc(OC3CCN(C4CCC4)CC3)cc2)cn[nH]1` [Example 106, 5-[4-(1-Cyclobutyl-piperidin-4-yloxy)-phenyl]-2H-pyridazin-3-one], the inhibition constant Ki in assay [1] (Table B) and in assay [2] (setting [3]) was 0.1 to 100 nM in each case.
Take `Cc1nn(-c2ccsc2)c(=O)cc1-c1ccc(OC2CCN(C3CCC3)CC2)cc1` [Example 107, 5-[4-(1-Cyclobutyl-piperidin-4-yloxy)-phenyl]-6-methyl-2-thiophen-3-yl-2H-pyridazin-3-one]: the Ki in assay [1] (Table B) and in assay [2] (setting [3]) was 0.1 to 100 nM each time.
In the case of `Cc1nn(-c2ccsc2)c(=O)cc1-c1ccc(OCCCN2CCC[C@H]2C)cc1` [Example 108, 6-Methyl-5-{4-[3-((R)-2-methyl-pyrrolidin-1-yl)-propoxy]-phenyl}-2-thiophen-3-yl-2H-pyridazin-3-one], the Ki in assay [1] (Table B) and in assay [2] (setting [3]) was 0.1 to 100 nM each time.
Take `C[C@@H]1CCCN1CCCOc1ccc(C2=NNC(=O)CC2c2ccccn2)cc1` (stereo partly drawn) [Example 111, 6-{4-[3-((R)-2-Methyl-pyrrolidin-1-yl)-propoxy]-phenyl}-5-pyridin-2-yl-4,5-dihydro-2H-pyridazin-3-one]: the Ki in assay [1] (Table B) and in assay [2] (setting [3]) was 0.1 to 100 nM each time.
With `O=C1CC(c2ccccn2)C(c2ccc(OC3CCNCC3)cc2)=NN1` (stereo not drawn) [Example 113, 6-[4-(Piperidin-4-yloxy)-phenyl]-5-pyridin-2-yl-4,5-dihydro-2H-pyridazin-3-one], the Ki in assay [1] (Table B) and in assay [2] (setting [3]) was above 1000 nM in each case.
`CC1CC(c2ccc(OC3CCN(C4CCC4)CC3)cc2)=NNC1=O` (stereo not drawn) [Example 116, 6-[4-(1-Cyclobutyl-piperidin-4-yloxy)-phenyl]-4-methyl-4,5-dihydro-2H-pyridazin-3-one]: the inhibition constant Ki in assay [1] (Table B) and in assay [2] (setting [3]) was 0.1 to 100 nM throughout.
With `O=c1cc(-c2ccc(OC3CCN(C4CCC4)CC3)nc2)cn[nH]1` [Example 117, 5-[6-(1-Cyclobutyl-piperidin-4-yloxy)-pyridin-3-yl]-2H-pyridazin-3-one], the Ki in assay [1] (Table B) and in assay [2] (setting [3]) was 0.1 to 100 nM each time.
On to `C[C@@H]1CCCN1CCCOc1ccc(-c2ccc(=O)n(CCF)n2)cc1` [Example 118, 2-(2-Fluoro-ethyl)-6-{4-[3-((R)-2-methyl-pyrrolidin-1-yl)-propoxy]-phenyl}-2H-pyridazin-3-one], for which the Ki in assay [1] (Table B) and in assay [2] (setting [3]) was 0.1 to 100 nM throughout.
In the case of `C[C@@H]1CCCN1CCCOc1ccc(-c2ccc(=O)[nH]n2)cc1F` [Example 119, 6-{3-Fluoro-4-[3-((R)-2-methyl-pyrrolidin-1-yl)-propoxy]-phenyl}-2H-pyridazin-3-one], the Ki in assay [1] (Table B) and in assay [2] (setting [3]) was 0.1 to 100 nM in each case.
`O=c1ccc(-c2ccc(OCCCN3CCCCC3)c(F)c2)n[nH]1` [Example 120, 6-[3-Fluoro-4-(3-piperidin-1-yl-propoxy)-phenyl]-2H-pyridazin-3-one]: the Ki fell in the range of 0.1 to 100 nM in assay [1] (Table B) and 101 to 500 nM in assay [2] (setting [3]).
The corresponding values for `CC1CC(c2ccc(OCCCN3CCC[C@H]3C)cc2)=NNC1=O` (stereo partly drawn) [Example 121, 4-Methyl-6-{4-[3-((R)-2-methyl-pyrrolidin-1-yl)-propoxy]-phenyl}-4,5-dihydro-2H-pyridazin-3-one] are 0.1 to 100 nM and 0.1 to 100 nM.
On to `Cc1cc(-c2ccc(OCCCN3CCC[C@H]3C)cc2)n[nH]c1=O` [Example 122, 4-Methyl-6-{4-[3-((R)-2-methyl-pyrrolidin-1-yl)-propoxy]-phenyl}-2H-pyridazin-3-one], for which the Ki in assay [1] (Table B) and in assay [2] (setting [3]) was 0.1 to 100 nM in each case.
On to `Cc1cc(-c2ccc(OCCCN3CCCCC3)cc2)n[nH]c1=O` [Example 123, 4-Methyl-6-[4-(3-piperidin-1-yl-propoxy)-phenyl]-2H-pyridazin-3-one], for which the inhibitory constant (Ki) in assay [1] (Table B) and in assay [2] (setting [3]) was 0.1 to 100 nM in each case.
